Patent US20240352068A1, “VIMENTIN TARGETED PEPTOIDS FOR EARLY DIAGNOSIS AND TREATMENT OF CANCER” (UNIVERSITY OF HOUSTON SYSTEM, priority 2021, published 2024)
Numbered stars: 1 amine (or outer) side, 2 acyl side, 3 side chain; on linkers, the order of the positions; unused ones are H or OH. Bridge positions count the residues as written; N and C are the ends. Square brackets hold non-standard residues; d marks the D form. Peptide text beside a SMILES is read from it. I, II: the chains in the order shown. X1 = O=C(c1ccccc1)c1cccc(N(CC(=O)[*:2])[*:1])c1; N(4-BzPh)Gly = O=C(O)CNc1ccc(C(=O)c2ccccc2)cc1; Gly(N-piperonyl) = O=C(O)CNCc1ccc2c(c1)OCO2; Nleu = CC(C)CNCC(=O)O; Nlys = NCCCCNCC(=O)O; Nme = COCCNCC(=O)O; Sar = CNCC(=O)O

How the values were obtained:
vimentin [1] = target: T1, vimentin (Homo sapiens, UniProt P08670); assay: ELISA-like binding assay to vimentin
Method: To identify minimum pharmacophore of JM3A (the most important residues directly needed for protein binding), an alanine/sarcosine scan was done.
Next, Applicant compared binding activity between L2 (D-ala) and JM3ABPD1 by employing ELISA-like binding assay in a concentration between 10 nM to 10 μM.

H1299 cells [2] = assay: wound healing (cell migration) assay; format: cell-based; design: inhibition of cell migration: dose or concentration left out as unconfirmed
Method: FIGS. 22A-22B provide data related to the characterization of L2 (D-ala), JM3A-BPD1, and JM3A-BP. […] H1299 cells were cultured to form a monolayer in 24-well plate. A scratch was made and wells were treated with L2 (D-ala), JM3A-BPD1. […]
Since vimentin has been identified as an important biomarker of mesenchymal cells during the epithelial-mesenchymal transition (EMT) process. The EMT process can endow epithelial cells with stemness as well as invasion and migration properties. Therefore, Applicant would like to investigate how L2 (D-ala) targeting vimentin can impact cancer stem cells activity. The wound-healing assay indicates the mobility/motility of cells, which is a hallmark measurement of cancer stem cells. The L2 (D-ala), JM3A-BPD1, JM3A-BP, and control compound were used to study the effects on cell migration via wound healing assay. […] Both JM3A-BP monomer and control compounds had no effect on cell migration.

H460 cells = assay: colony formation assay; format: cell-based; conditions: for colony formation: 7 days, at 20 μM
Method: FIGS. 23A-23B provide additional data related to the characterization of L2 (D-ala), JM3A-BPD1, and JM3A-BP. […] FIG. 23B provides a quantification of the colonies after a 7-day incubation treatment.
Colony formation is a standard assay to assess the activity of cancer stem cells. When cancer cells are seeded in a low number, normal cancer cells die due to the loss of cell-cell communications while cancer stem cells can survive and form colonies in isolation. Applicant performed colony formation assay on H460 cells to study how L2 (D-ala) can affect cancer stem cells activity. The H460 cells were seeded and treated with L2 (D-ala), JM3A-BPD1, JM3A-BP, and control compounds from day 1. After 7 days of incubation, colonies were carefully counted and plotted.

[3] = system: HBEC3^p53,KRAS,cMYC cells; assay: on-bead cell binding, transformed cells; format: cell-based, human; conditions: JM3A on tentagel beads, red stained cells, separately and as mixture
Excerpt: (§1) The compound JM3A was resynthesized on tentagel beads and equilibrated with HBEC3^p53,KRAS,cMYC (red stained) cells and HBEC3-KT (green stained) cells separately and also as a mixture.

HBEC3-KT cells = assay: on-bead cell binding, normal cells; format: cell-based, human; conditions: JM3A on tentagel beads, green stained cells, separately and as mixture
Excerpt: as §1

[4] = target: Vimentin protein (His-tag) (Homo sapiens, UniProt P08670); assay: on bead protein binding assay; conditions: anti-His Alexa 647 detection
Method: To reconfirm the JM3A-vimentin interaction, an on bead protein binding assay was performed. Vimentin protein (His-tag) was screened with compound JM3A (on tentagel beads) and visualized using a secondary antibody (Anti-His Alexa 647) (FIG. 9A).

[5] = target: T2, commercially available vimentin protein (Homo sapiens, UniProt P08670); assay: magnetic-bead pulldown and western blot with commercially available vimentin protein; format: binding; conditions: western blot
T2 construct: purchased
Excerpt: To further confirm of JM3A specificity, the western blot assay was repeated using commercially available vimentin protein (FIG. 10B). […] This JM3A bound band disappeared when this binding was competed (blocked) with 10× free JM3A, and 5× free vimentin antibody. […] The results were further confirmed by running pure protein as reference band and JM3A transformed cells pulldown proteins.

[6] = system: vimentin expressing cells; assay: magnetic bead pulldown of cells with quantification; format: cell-based, human; conditions: HBEC3^p53,KRAS,cMYC vs HBEC3-KT; NAD(P)H, dityrosine, MTS readout
Method: JM3A can be utilized as an early cancer biomarker to develop simple diagnostic tools such as reading the cells auto fluorescence markers or quantifying the cells using MTS assay. Applicant performed the pulldown assay using JM3A to HBEC3-KT and HBEC3^p53,KRAS,cMYC cells. The Biotin-JM3A compound was mounted on streptavidin coated magnetic beads and 1 million cells (HBEC3-KT and HBEC3^p53,KRAS,cMYC cells each) were incubated for 1 hour. Next, bound cells were pulled using magnet.
The difference of number of cells pulled down were quantified for NAD (P) H (FIG. 11A) and Dityrosine (FIG. 11B) expression. Also to the pulldown cells MTS reagent was added and number of cells were quantified (FIG. 11C).

vimentin [7] = target: T1, vimentin; assay: cross-linking, magnetic-bead pulldown and western blot on cells; format: binding; design: from tissue; host or cells: human early cancer tissue and normal tissue cross-sections; conditions: western blot
Method: For pulldown assay, the JM3A compound was synthesized with Biotin on C-terminal and benzophenone on its N-terminal (FIG. 7A). The compound was first mounted on streptavidin magnetic beads, followed by incubation of the cells HBEC3^p53,KRAS,cMYC and HBEC3-KT for 1 hour. Bound cells were separated using magnetic beads and cross-linked using UV. The cells were then lysed, and the proteins were separated by electrophoresis and visualized by silver staining (FIG. 7B). The unique band at around 60 kDa in the JM3A-bound sample, which was not present in whole cell lysis of HBEC3-KT cells or in the Control-PC462 compound pulldown, was analyzed by standard proteomics technique.
To reconfirm the JM3A-vimentin interaction, western blot analysis of samples from cross-linking and magnetic-bead pulldown assay with normal cells (HBEC3-KT) and transformed cells (HBEC3^p53,KRAS,cMYC) were performed (FIG. 10A). Pulldown assay was performed on normal and transformed cells using JM3A and control PC462. All the pulldown fractions were run on western-blot and compared with whole-cell lysis of HBEC3-KT and HBEC3^p53,KRAS,cMYC cells.

vimentin [8] = target: T1, vimentin; assay: immunohistochemical detection of vimentin in tissues; design: from tissue; host or cells: human early cancer tissue and normal tissue cross-sections; conditions: IHC
Method: In a more clinically applicable set up, Applicant detected vimentin expression using JM3A in early cancer tissues from human samples using immunohistochemistry (IHC) experiments. Biotin-JM3A was incubated with those tumor tissue cross-sections compared to normal tissues for 1 hour and visualized by streptavidin Q-dots 655 under fluorescent microscope using Long-pass filter (FIG. 11D).

H1299 cells [9] = format: cell-based
Method: Next, Applicant evaluated the anti-proliferative activity of these peptoid dimers via standard MTS assays on non-small cell lung cancer (NSCLC) H1299 cells, which have high vimentin expression.
After 18 hours, the activity reached the maximum (IC50˜6 μM) (FIG. 21C).

H460 = assay: MTS assay on H460 cells; format: cell-based; conditions: H460, vimentin high expression
Excerpt: (§2) In order to investigate the broader applicability of vimentin targeting in NSCLC cells, Applicant performed the same MTS studies on different lung cancer models with various vimentin expressions. These cell lines included H460 (Carcinoma, large cell lung cancer), H2009 (Adenocarcinoma, Stage 4), H358 (Bronchioalveolar Carcinoma, NSCLC), H2122 (Adenocarcinoma, NSCLC), and normal bronchial epithelial HBEC3KT cells.

H2009 = assay: MTS assay on H2009 cells; format: cell-based; conditions: H2009, vimentin moderate expression
Excerpt: as §2

H358 = assay: MTS assay on H358 cells; format: cell-based; conditions: H358, vimentin moderate expression
Excerpt: as §2

H2122 = assay: MTS assay on H2122 cells; format: cell-based; conditions: H2122, vimentin low expression
Excerpt: as §2

[10] = system: normal bronchial epithelial HBEC3KT cells; assay: MTS assay on normal bronchial epithelial cells; format: cell-based, human
Excerpt: as §2

T1 sequence (P08670 whole entry): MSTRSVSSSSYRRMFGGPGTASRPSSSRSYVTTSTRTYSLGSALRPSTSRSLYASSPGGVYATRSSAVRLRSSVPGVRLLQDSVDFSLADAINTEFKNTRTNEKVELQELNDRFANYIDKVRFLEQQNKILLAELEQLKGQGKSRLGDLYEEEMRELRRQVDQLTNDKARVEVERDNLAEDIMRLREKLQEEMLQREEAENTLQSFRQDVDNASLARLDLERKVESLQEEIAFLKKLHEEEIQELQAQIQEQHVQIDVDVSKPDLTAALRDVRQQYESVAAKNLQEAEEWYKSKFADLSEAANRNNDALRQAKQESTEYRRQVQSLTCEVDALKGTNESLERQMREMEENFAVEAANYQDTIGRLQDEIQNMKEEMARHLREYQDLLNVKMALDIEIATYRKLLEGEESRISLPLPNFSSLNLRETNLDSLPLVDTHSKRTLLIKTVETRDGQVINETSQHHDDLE
T2 sequence (P08670 whole entry): as above
Sequence of Vimentin protein (His-tag) (P08670 whole entry): as above

## COCCN(CC(=O)NC(CCCCN)C(=O)NC(CCSC)C(N)=O)C(=O)CN(C)C(=O)CN(CC(C)C)C(=O)CN(CCCCN)C(=O)CN(CCCCN)C(=O)CN(C)C(=O)CNc1ccc(C(=O)c2ccccc2)cc1 (stereo not shown) [JM3A-4,8-BP] (H-[N(4-BzPh)Gly][Sar][Nlys][Nlys][Nleu][Sar][Nme]KM-NH2; configuration not given here)
Vimentin [1]; comparison of derivatives
  binding to vimentin (in words): highest binding affinity

## COCCN(CC(=O)NC(CCCCN)C(=O)NC(CCSC)C(=O)NCCCCC(NC(=O)C(CCSC)NC(=O)C(CCCCN)NC(=O)CN(CCOC)C(=O)CN(Cc1ccc2c(c1)OCO2)C(=O)CN(CC(C)C)C(=O)CN(CCCCN)C(=O)CN(CCCCN)C(=O)CN(CC(C)C)C(=O)CNc1ccc(C(=O)c2ccccc2)cc1)C(N)=O)C(=O)CN(Cc1ccc2c(c1)OCO2)C(=O)CN(CC(C)C)C(=O)CN(CCCCN)C(=O)CN(CCCCN)C(=O)CN(CC(C)C)C(=O)CNc1ccc(C(=O)c2ccccc2)cc1 (stereo not shown) [JM3A-BPD1] (I: H-[N(4-BzPh)Gly][Nleu][Nlys][Nlys][Nleu][Gly(N-piperonyl)][Nme]KMK-NH2 / II: H-[N(4-BzPh)Gly][Nleu][Nlys][Nlys][Nleu][Gly(N-piperonyl)][Nme]KM; amide I:10-II:C; configuration not given here)
H1299 cells [2]
  inhibition of cell migration: moderately inhibit
H460 cells
  colony formation: some colony disruption

## COCCN(CC(=O)NC(CCCCN)C(=O)NC(CCSC)C(N)=O)C(=O)CN(Cc1ccc2c(c1)OCO2)C(=O)CN(CC(C)C)C(=O)CN(CCCCN)C(=O)CN(CCCCN)C(=O)CNCC(C)C (stereo not shown) [JM3A] (H-[Nleu][Nlys][Nlys][Nleu][Gly(N-piperonyl)][Nme]KM-NH2; configuration not given here)
[3]
  binding of beads to cells: bound only to red stained cells
HBEC3-KT cells
  binding of beads to cells: not to green stained cells
[4]
  binding of histidine-tagged vimentin to on-bead compound: showed binding
[5]
  interaction with and pulldown of vimentin protein: strong interaction and pulldown of vimentin protein
[6]
  pulldown of vimentin expressing cells: can be pulled down
Vimentin [7]; normal cells (HBEC3-KT)
  pulldown of vimentin protein: not in normal cells
Vimentin [7]; transformed cells (HBEC3^p53,KRAS,cMYC)
  pulldown of vimentin protein: pulldown only with JM3A in transformed cells
Vimentin [8]; early cancer tissues
  detection of vimentin overexpression: present
Vimentin [8]; normal tissues
  detection of vimentin overexpression: absent

## COCCN(CC(=O)N[C@@H](CCCCN)C(=O)N[C@H](C)C(=O)NCC(=O)NCCCC[C@H](NC(=O)CNC(=O)[C@@H](C)NC(=O)[C@H](CCCCN)NC(=O)CN(CCOC)C(=O)CN(Cc1ccc2c(c1)OCO2)C(=O)CN(CC(C)C)C(=O)CN(CCCCN)C(=O)CN(CCCCN)C(=O)CN(CC(C)C)C(=O)CNc1cccc(C(=O)c2ccccc2)c1)C(N)=O)C(=O)CN(Cc1ccc2c(c1)OCO2)C(=O)CN(CC(C)C)C(=O)CN(CCCCN)C(=O)CN(CCCCN)C(=O)CN(CC(C)C)C(=O)CNc1ccc(C(=O)c2ccccc2)cc1 [L2 (D-ala)] (I: H-[X1][Nleu][Nlys][Nlys][Nleu][Gly(N-piperonyl)][Nme]K[dA]GK-NH2 / II: H-[N(4-BzPh)Gly][Nleu][Nlys][Nlys][Nleu][Gly(N-piperonyl)][Nme]K[dA]G; amide I:11-II:C; N-terminus and C-terminus assumed)
Vimentin [1]; 10 nM to 10 μM
  Kd improvement relative to JM3A-BPD1: approximately 10 times
H1299 cells [9]; H1299 cells, after 18 hours
  effect of extension of treatment time on proliferation: no significant impact
H1299 cells [9]; H1299 cells, treatment 6 hours
  anti-proliferation potency (in words): improvement in potency
H460
  anti-proliferation activity (in words): best activity
H2009
  anti-proliferation activity (in words): medium activity
H358
  anti-proliferation activity (in words): medium activity
H2122
  anti-proliferation activity (in words): lowest activity
[10]
  anti-proliferation activity (in words): inactivity
H1299 cells [2]
  concentration from which cell migration is inhibited: 3 µM
  inhibition of cell migration: significantly inhibit
H460 cells; 7 days of incubation
  concentration from which colony formation is disrupted: 1 µM
H460 cells
  colony formation: inhibit all colonies

## COCCN(CC(=O)N[C@@H](CCCCN)C(=O)N[C@@H](CCSC)C(=O)NCC(=O)NCCCC[C@H](NC(=O)CNC(=O)[C@H](CCSC)NC(=O)[C@H](CCCCN)NC(=O)CN(CCOC)C(=O)CN(Cc1ccc2c(c1)OCO2)C(=O)CN(CC(C)C)C(=O)CN(CCCCN)C(=O)CN(CCCCN)C(=O)CN(CC(C)C)C(=O)CNc1ccc(C(=O)c2ccccc2)cc1)C(N)=O)C(=O)CN(Cc1ccc2c(c1)OCO2)C(=O)CN(CC(C)C)C(=O)CN(CCCCN)C(=O)CN(CCCCN)C(=O)CN(CC(C)C)C(=O)CNc1ccc(C(=O)c2ccccc2)cc1 [L2] (I: H-[N(4-BzPh)Gly][Nleu][Nlys][Nlys][Nleu][Gly(N-piperonyl)][Nme]KMGK-NH2 / II: H-[N(4-BzPh)Gly][Nleu][Nlys][Nlys][Nleu][Gly(N-piperonyl)][Nme]KMG; amide I:11-II:C)
H1299 cells [9]
  IC50: ~6 µM
